Source: ChEMBL document CHEMBL1125738, “A ring-enlarged oxetanocin A analogue as an inhibitor of HIV infectivity” (1991)

System: Human immunodeficiency virus 1
Test: Cytopathogenic effect was evaluated against Human immunovirus-1 (HIV-1).
Format: functional

SMILES: Nc1ncnc2c1ncn2[C@@H]1O[C@H](CO)[C@H]1CO
- Protective dose: 100 µM

SMILES: Nc1ncnc2c1ncn2[C@H]1C[C@H](CO)[C@@H](CO)O1
- Protective dose: 10 µM
